In ChEMBL document CHEMBL3885881, “DrugMatrix”:
“And” between values parts separate entries of the source, which are not always exact repeats. Identical values can stand only once.

Organism: Rattus norvegicus
Test: DrugMatrix - Regimen: Daily Repeat
Assay type: toxicity, organism-based, Sprague-Dawley
Design: regimen Daily Repeat, gender Male, age 6-8 weeks
Settings: in vivo, vehicle 100 % SALINE; for ALANINE AMINOTRANSFERASE / ALBUMIN / ALKALINE PHOSPHATASE / ASPARTATE AMINOTRANSFERASE / BLOOD UREA NITROGEN / CARBON DIOXIDE / CHLORIDE / CHOLESTEROL / CREATINE PHOSPHOKINASE / CREATININE / GLUCOSE / LACTATE DEHYDROGENASE / LIPASE / PHOSPHORUS / POTASSIUM / SODIUM / TOTAL BILIRUBIN / TOTAL PROTEIN / URIC ACID: tissue Plasma
[1] = ip, 2 mg/kg, 120 h, tissue Blood, route intraperitoneal, dose level High, time 5 day
[2] = ip, 2 mg/kg, 120 h, route intraperitoneal, dose level High, time 5 day
[3] = ip, 2 mg/kg, […], tissue Blood, route intraperitoneal, dose level High, time 14 day
[4] = ip, 2 mg/kg, […], tissue Blood, route intraperitoneal, dose level High, time 28 day
[5] = ip, 2 mg/kg, […], route intraperitoneal, dose level High, time 14 day
[6] = ip, 2 mg/kg, […], route intraperitoneal, dose level High, time 28 day
[7] = po, 0 mg/kg, 72 h, tissue Blood, route oral GAVAGE, dose level Control, time 3 day

With LEAD (II) ACETATE as the substance, how does the BASOPHIL [1] read?
Its BASOPHIL is 0.92% and 0.35%.

And the EOSINOPHIL [1]?
Its EOSINOPHIL is 1.12% and 0.5%.

What about the “ERYTHROCYTE COUNT” value [1] of the same substance?
The value was 7.54 x10E6/uL and 7.26 x10E6/uL.

What about the HEMATOCRIT [1] of the same substance?
Its HEMATOCRIT is 45.88% and 47.9%.

And the HEMOGLOBIN [1]?
The HEMOGLOBIN was 15 G/DL and 15.17 G/DL.

And the “LEUKOCYTE COUNT” value [1]?
Its value is 13.21 x10E3/uL and 9.67 x10E3/uL.

What about the LYMPHOCYTE [1] of the same substance?
The LYMPHOCYTE was 76.12% and 82.6%.

What about the “MEAN CORPUSCULAR HEMOGLOBIN” value [1] of the same substance?
Its value is 20.9 pg.

What about the “MEAN CORPUSCULAR HEMOGLOBIN CONCENTRATION” value [1] of the same substance?
The value was 32.66 G/DL and 31.67 G/DL.

What about the “MEAN CORPUSCULAR VOLUME” value [1] of the same substance?
The value was 66 fL.

And the MONOCYTE [1]?
The MONOCYTE was 1.94% and 1.57%.

And the NEUTROPHIL [1]?
Its NEUTROPHIL is 19.32% and 13.95%.

And the “PLATELET COUNT” value [1]?
The value was 1605.4 x10E3/uL and 1679.25 x10E3/uL.

And the “ALANINE AMINOTRANSFERASE” value [2]?
The value was 30.6 u/L and 16 u/L.

And the ALBUMIN [2]?
Its ALBUMIN is 3.32 G/DL and 4.1 G/DL.

What about the “ALKALINE PHOSPHATASE” value [2] of the same substance?
The value was 221 u/L and 290.75 u/L.

What about the “ASPARTATE AMINOTRANSFERASE” value [2] of the same substance?
Its value is 83.2 u/L and 78.25 u/L.

What about the “BLOOD UREA NITROGEN” value [2] of the same substance?
Its value is 13.8 mg/dL and 16.75 mg/dL.

And the “CARBON DIOXIDE” value [2]?
The value was 24 mmol/L.

And the CHLORIDE [2]?
Its CHLORIDE is 109.2 MEQ/L and 108.75 MEQ/L.

And the CHOLESTEROL [2]?
Its CHOLESTEROL is 57 mg/dL and 58.25 mg/dL.

What about the “CREATINE PHOSPHOKINASE” value [2] of the same substance?
The value was 338.6 u/L and 224.25 u/L.

And the CREATININE [2]?
The CREATININE was 0.54 mg/dL and 0.4 mg/dL.

And the GLUCOSE [2]?
The GLUCOSE was 117.4 mg/dL and 114.75 mg/dL.

And the “LACTATE DEHYDROGENASE” value [2]?
The value was 76.2 u/L.

What about the LIPASE [2] of the same substance?
Its LIPASE is 36 u/L and 14.25 u/L.

What about the PHOSPHORUS [2] of the same substance?
Its PHOSPHORUS is 10.02 mg/dL and 13.3 mg/dL.

What about the POTASSIUM [2] of the same substance?
Its POTASSIUM is 6.38 MEQ/L and 6.15 MEQ/L.

And the SODIUM [2]?
Its SODIUM is 151.2 MEQ/L and 152.25 MEQ/L.

And the “TOTAL BILIRUBIN” value [2]?
Its value is 0.16 mg/dL and 0.3 mg/dL.

And the “TOTAL PROTEIN” value [2]?
Its value is 5.8 G/DL and 6.3 G/DL.

And the “URIC ACID” value [2]?
The value was 1.08 mg/dL and 2.1 mg/dL.

What about the ABSOLUTE BASOPHIL [3] of the same substance?
Its ABSOLUTE BASOPHIL is 88 cells/µL.

What about the ABSOLUTE EOSINOPHIL [3] of the same substance?
The ABSOLUTE EOSINOPHIL was 74 cells/µL.

What about the ABSOLUTE LYMPHOCYTE [3] of the same substance?
Its ABSOLUTE LYMPHOCYTE is 8320 cells/µL.

And the ABSOLUTE MONOCYTE [3]?
The ABSOLUTE MONOCYTE was 390 cells/µL.

And the ABSOLUTE SEGMENTED NEUTROPHIL [3]?
Its ABSOLUTE SEGMENTED NEUTROPHIL is 3420 cells/µL.

And the HEMOGLOBIN [3]?
Its HEMOGLOBIN is 14.2 G/DL.

What about the “MEAN CORPUSCULAR VOLUME” value [3] of the same substance?
Its value is 59.1 fL.

What about the ABSOLUTE BASOPHIL [4] of the same substance?
Its ABSOLUTE BASOPHIL is 93 cells/µL.

What about the ABSOLUTE EOSINOPHIL [4] of the same substance?
Its ABSOLUTE EOSINOPHIL is 130 cells/µL.

And the ABSOLUTE LYMPHOCYTE [4]?
The ABSOLUTE LYMPHOCYTE was 9520 cells/µL.

What about the ABSOLUTE MONOCYTE [4] of the same substance?
The ABSOLUTE MONOCYTE was 320 cells/µL.

And the ABSOLUTE SEGMENTED NEUTROPHIL [4]?
The ABSOLUTE SEGMENTED NEUTROPHIL was 2680 cells/µL.

And the BASOPHIL [4]?
Its BASOPHIL is 0.79%.

What about the EOSINOPHIL [4] of the same substance?
Its EOSINOPHIL is 1.01%.

What about the “ERYTHROCYTE COUNT” value [4] of the same substance?
The value was 8.38 x10E6/uL.

And the HEMATOCRIT [4]?
Its HEMATOCRIT is 46.51%.

And the HEMOGLOBIN [4]?
The HEMOGLOBIN was 14.88 G/DL.

And the “LEUKOCYTE COUNT” value [4]?
The value was 12.81 x10E3/uL.

And the LYMPHOCYTE [4]?
The LYMPHOCYTE was 74.22%.

What about the “MEAN CORPUSCULAR HEMOGLOBIN” value [4] of the same substance?
Its value is 17.76 pg.

And the “MEAN CORPUSCULAR HEMOGLOBIN CONCENTRATION” value [4]?
Its value is 32.02 G/DL.

And the “MEAN CORPUSCULAR VOLUME” value [4]?
Its value is 55.46 fL.

What about the MONOCYTE [4] of the same substance?
The MONOCYTE was 2.51%.

What about the NEUTROPHIL [4] of the same substance?
The NEUTROPHIL was 20.93%.

What about the “PLATELET COUNT” value [4] of the same substance?
Its value is 1429.8 x10E3/uL.

What about the “CARBON DIOXIDE” value [5] of the same substance?
Its value is 26 mmol/L.

What about the “TOTAL PROTEIN” value [5] of the same substance?
Its value is 5.9 G/DL.

What about the “ALANINE AMINOTRANSFERASE” value [6] of the same substance?
Its value is 25.8 u/L.

And the ALBUMIN [6]?
The ALBUMIN was 3.52 G/DL.

And the “ALKALINE PHOSPHATASE” value [6]?
The value was 146.4 u/L.

What about the “ASPARTATE AMINOTRANSFERASE” value [6] of the same substance?
The value was 80.7 u/L.

And the “BLOOD UREA NITROGEN” value [6]?
Its value is 13.3 mg/dL.

And the CHLORIDE [6]?
The CHLORIDE was 109.1 MEQ/L.

And the CHOLESTEROL [6]?
Its CHOLESTEROL is 54 mg/dL.

What about the “CREATINE PHOSPHOKINASE” value [6] of the same substance?
The value was 159.1 u/L.

And the CREATININE [6]?
The CREATININE was 0.58 mg/dL.

And the GLUCOSE [6]?
The GLUCOSE was 112.6 mg/dL.

And the “LACTATE DEHYDROGENASE” value [6]?
Its value is 73.7 u/L.

And the LIPASE [6]?
Its LIPASE is 26.7 u/L.

What about the PHOSPHORUS [6] of the same substance?
The PHOSPHORUS was 9.13 mg/dL.

And the POTASSIUM [6]?
The POTASSIUM was 6.27 MEQ/L.

And the SODIUM [6]?
The SODIUM was 150.5 MEQ/L.

And the “TOTAL BILIRUBIN” value [6]?
The value was 0.21 mg/dL.

And the “TOTAL PROTEIN” value [6]?
The value was 6.39 G/DL.

What about the “URIC ACID” value [6] of the same substance?
Its value is 1.41 mg/dL.

What about the “ABSOLUTE BASOPHIL” value [7] of the same substance?
Its value is 0 CELLS/uL.

And the “ABSOLUTE EOSINOPHIL” value [7]?
The value was 37 CELLS/uL.

And the “ABSOLUTE LYMPHOCYTE” value [7]?
The value was 12359.33 CELLS/uL.

And the “ABSOLUTE MONOCYTE” value [7]?
Its value is 122.67 CELLS/uL.

And the “ABSOLUTE SEGMENTED NEUTROPHIL” value [7]?
The value was 847.67 CELLS/uL.

And the BASOPHIL [7]?
The BASOPHIL was 0%.

What about the EOSINOPHIL [7] of the same substance?
The EOSINOPHIL was 0.33%.

What about the “ERYTHROCYTE COUNT” value [7] of the same substance?
Its value is 5.75 x10E6/uL.

And the HEMATOCRIT [7]?
Its HEMATOCRIT is 36.08%.

What about the “LEUKOCYTE COUNT” value [7] of the same substance?
The value was 13.37 x10E3/uL.

And the “MEAN CORPUSCULAR HEMOGLOBIN CONCENTRATION” value [7]?
The value was 38.98 G/DL.

And the MONOCYTE [7]?
The MONOCYTE was 1%.

And the NEUTROPHIL [7]?
Its NEUTROPHIL is 6.17%.

And the “NUCLEATED RED BLOOD CELLS” value [7]?
Its value is 0.17 /100WBC.

What about the “PLATELET COUNT” value [7] of the same substance?
The value was 1202.17 x10E3/uL.
